Literature values as cited in EP4578905A1, “COMPOSITION, PREPARATION METHOD THEREFOR, AND USE THEREOF” (Bloomage Biotechnology Corporation Limited, priority 2022, dated 2024).
Where two headings read alike, the source gives them in different places.

dissociation constant pK (first pK printed): 4.03
dissociation constant pK (second pK printed): 10.56
SMILES: NCCCC(=O)O [γ-aminobutyric acid]
